Measurements published in patent publication US10858339B2, “Aryl cyclopropyl-amino-isoquinolinyl amide compounds” (priority 2017, dated 2020).
Structures can show the parent of a compound that is named as a salt.

Experiments:
ROCK2 = ROCK2 (Homo sapiens, UniProt O75116); experiment: biochemical
ROCK1 = ROCK1 (Homo sapiens, UniProt Q13464); experiment: ROCK kinase inhibition assay, ROCK1 enzyme; assay type: biochemical;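 further: kinase reaction with 0.5 µM final ATP, 75 min at room temperature, remaining ATP read by luminescence, percent of DMSO-only control minus background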
Rho Kinase = experiment: ROCK kinase inhibition assay (Rho Kinase Activity, isoform not given); assay type: biochemical; conditions: Table 15, mostly given as ranges
Experimental: All compounds were initially prepared as 10 mM stocks in anhydrous dimethylsulfoxide (DMSO). A 20 μl aliquot of the 10 mM solutions was transferred to individual wells in column 1 of a 96-well polypropylene microtiter plate (Corning #3363) and diluted with DMSO to give a final compound concentration of 4 mM. Test compounds were then serially diluted 1:5 in DMSO for an 11-point concentration response and further diluted in the assay buffer bringing all compound concentrations to a final range of 100 μM to […] in 2.5% DMSO. The assay was performed in white 96-well, flat-bottom, half-area, non-binding assay plate (Corning #3642) in assay buffer consisting of 20 mM HEPES (pH 7.5), 10 mM MgCl2*6H2O, 100 μM sodium orthovanadate, 0.05% CHAPS and 0.1% bovine serum albumin. A 10 μL aliquot of compound from each well of the intermediate dilution plate and 20 μL of a 2× substrate/enzyme solution containing acceptor substrate (800 nM RSK2 peptide […] (SEQ ID NO: 1)), ROCK2 enzyme (10 nM), or ROCK1 enzyme, and 1,4-Dithiothreitol (DTT, 2 uM) were added to all wells. The reaction was initiated by the addition of 10 μL of 4× stock solution ATP (2 μM). Reactions were thoroughly mixed manually, covered and allowed to incubate at room temperature for 75 min. Protein kinase activity was quantitated using Promega's KINASE-GLO™ luminescent Kinase Assay Kit according to the manufacturer's directions. ATP concentrations remaining in Test wells following the termination of the enzymatic reaction were compared against control wells containing equivalent amounts of DMSO containing no inhibitor (CTRL). […] Percent of Control (POC) values were determined for each concentration of compound tested according to the equation: POC=((Test well value−BKG)/(CTRL−BKG))*100
IC50 values were converted to K; […]

JAK2 = JAK2 (Homo sapiens, UniProt O60674); experiment: JAK kinase assay, JAK2 enzyme; assay type: biochemical; conditions: for Ki: Table 15, in brackets in the activity cell, read-out: JAK2 activity;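 on all read-outs here: JAK2 kinase reaction run 75 min at room temperature, leftover ATP read by Kinase-Glo luminescence, 11-point dilution series in 2.5% DMSO, percent of inhibitor-free DMSO control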
JAK2, sequence (O60674 whole entry, species assumed): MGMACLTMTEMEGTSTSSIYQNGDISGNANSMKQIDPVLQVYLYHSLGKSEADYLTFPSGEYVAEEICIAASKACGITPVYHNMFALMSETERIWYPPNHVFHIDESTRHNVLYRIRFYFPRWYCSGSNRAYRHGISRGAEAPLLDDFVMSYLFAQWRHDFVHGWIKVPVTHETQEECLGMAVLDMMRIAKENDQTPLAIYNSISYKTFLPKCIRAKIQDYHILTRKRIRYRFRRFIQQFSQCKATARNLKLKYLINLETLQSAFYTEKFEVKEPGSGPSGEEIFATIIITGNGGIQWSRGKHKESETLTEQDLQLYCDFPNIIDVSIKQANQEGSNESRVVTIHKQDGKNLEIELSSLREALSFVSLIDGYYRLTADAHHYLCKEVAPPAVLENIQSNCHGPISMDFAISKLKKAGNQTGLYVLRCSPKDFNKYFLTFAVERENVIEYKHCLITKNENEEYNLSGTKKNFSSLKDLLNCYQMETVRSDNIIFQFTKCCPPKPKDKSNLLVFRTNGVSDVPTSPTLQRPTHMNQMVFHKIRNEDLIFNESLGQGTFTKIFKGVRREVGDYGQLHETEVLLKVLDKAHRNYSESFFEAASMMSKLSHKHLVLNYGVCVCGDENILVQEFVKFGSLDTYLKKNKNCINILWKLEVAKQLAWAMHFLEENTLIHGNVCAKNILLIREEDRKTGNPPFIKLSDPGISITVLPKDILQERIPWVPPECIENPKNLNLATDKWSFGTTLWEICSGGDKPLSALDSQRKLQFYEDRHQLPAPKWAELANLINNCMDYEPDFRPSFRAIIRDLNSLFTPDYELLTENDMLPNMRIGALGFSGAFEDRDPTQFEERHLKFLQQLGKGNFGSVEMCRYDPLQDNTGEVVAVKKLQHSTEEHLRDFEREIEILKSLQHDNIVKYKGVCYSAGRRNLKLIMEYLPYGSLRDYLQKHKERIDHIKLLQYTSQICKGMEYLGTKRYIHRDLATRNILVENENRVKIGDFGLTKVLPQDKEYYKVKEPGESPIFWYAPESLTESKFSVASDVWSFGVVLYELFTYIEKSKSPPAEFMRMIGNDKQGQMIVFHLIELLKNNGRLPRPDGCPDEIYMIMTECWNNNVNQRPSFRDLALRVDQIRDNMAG

ROCK1, sequence (Q13464 whole entry, species assumed, canonical isoform): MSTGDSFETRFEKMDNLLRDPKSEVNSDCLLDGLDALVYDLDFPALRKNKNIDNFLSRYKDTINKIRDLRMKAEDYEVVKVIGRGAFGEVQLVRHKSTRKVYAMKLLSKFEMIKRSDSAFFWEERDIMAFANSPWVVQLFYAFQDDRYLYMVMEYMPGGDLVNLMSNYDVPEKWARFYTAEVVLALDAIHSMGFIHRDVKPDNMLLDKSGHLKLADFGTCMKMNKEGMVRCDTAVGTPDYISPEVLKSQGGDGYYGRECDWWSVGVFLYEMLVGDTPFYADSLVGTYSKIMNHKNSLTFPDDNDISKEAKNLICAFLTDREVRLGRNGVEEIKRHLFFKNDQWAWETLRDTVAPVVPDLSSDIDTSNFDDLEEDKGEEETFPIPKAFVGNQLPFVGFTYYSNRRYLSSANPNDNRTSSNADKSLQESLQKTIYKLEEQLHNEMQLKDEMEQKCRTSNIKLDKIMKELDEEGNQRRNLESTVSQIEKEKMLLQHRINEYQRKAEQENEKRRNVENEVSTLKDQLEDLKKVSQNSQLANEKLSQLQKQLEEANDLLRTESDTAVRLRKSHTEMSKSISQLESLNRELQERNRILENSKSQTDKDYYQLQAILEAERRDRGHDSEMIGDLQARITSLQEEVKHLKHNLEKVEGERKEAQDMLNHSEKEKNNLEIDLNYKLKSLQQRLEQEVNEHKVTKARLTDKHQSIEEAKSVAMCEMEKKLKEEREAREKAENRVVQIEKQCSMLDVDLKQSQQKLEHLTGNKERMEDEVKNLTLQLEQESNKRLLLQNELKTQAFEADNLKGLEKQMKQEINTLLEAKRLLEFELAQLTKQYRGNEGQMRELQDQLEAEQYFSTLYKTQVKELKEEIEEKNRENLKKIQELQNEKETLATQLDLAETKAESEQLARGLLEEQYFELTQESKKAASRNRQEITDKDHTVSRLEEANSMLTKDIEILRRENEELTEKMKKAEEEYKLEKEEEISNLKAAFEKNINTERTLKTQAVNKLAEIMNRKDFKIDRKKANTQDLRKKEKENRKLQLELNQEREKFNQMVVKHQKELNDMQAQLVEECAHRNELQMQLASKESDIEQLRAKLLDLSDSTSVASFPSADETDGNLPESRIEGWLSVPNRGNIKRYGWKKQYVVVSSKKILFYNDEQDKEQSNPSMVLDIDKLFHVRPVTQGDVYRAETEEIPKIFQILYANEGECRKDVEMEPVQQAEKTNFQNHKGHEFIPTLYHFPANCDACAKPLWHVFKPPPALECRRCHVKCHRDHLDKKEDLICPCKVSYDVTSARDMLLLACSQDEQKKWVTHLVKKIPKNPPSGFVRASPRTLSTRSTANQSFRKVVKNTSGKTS
ROCK2, sequence (O75116 whole entry, species assumed): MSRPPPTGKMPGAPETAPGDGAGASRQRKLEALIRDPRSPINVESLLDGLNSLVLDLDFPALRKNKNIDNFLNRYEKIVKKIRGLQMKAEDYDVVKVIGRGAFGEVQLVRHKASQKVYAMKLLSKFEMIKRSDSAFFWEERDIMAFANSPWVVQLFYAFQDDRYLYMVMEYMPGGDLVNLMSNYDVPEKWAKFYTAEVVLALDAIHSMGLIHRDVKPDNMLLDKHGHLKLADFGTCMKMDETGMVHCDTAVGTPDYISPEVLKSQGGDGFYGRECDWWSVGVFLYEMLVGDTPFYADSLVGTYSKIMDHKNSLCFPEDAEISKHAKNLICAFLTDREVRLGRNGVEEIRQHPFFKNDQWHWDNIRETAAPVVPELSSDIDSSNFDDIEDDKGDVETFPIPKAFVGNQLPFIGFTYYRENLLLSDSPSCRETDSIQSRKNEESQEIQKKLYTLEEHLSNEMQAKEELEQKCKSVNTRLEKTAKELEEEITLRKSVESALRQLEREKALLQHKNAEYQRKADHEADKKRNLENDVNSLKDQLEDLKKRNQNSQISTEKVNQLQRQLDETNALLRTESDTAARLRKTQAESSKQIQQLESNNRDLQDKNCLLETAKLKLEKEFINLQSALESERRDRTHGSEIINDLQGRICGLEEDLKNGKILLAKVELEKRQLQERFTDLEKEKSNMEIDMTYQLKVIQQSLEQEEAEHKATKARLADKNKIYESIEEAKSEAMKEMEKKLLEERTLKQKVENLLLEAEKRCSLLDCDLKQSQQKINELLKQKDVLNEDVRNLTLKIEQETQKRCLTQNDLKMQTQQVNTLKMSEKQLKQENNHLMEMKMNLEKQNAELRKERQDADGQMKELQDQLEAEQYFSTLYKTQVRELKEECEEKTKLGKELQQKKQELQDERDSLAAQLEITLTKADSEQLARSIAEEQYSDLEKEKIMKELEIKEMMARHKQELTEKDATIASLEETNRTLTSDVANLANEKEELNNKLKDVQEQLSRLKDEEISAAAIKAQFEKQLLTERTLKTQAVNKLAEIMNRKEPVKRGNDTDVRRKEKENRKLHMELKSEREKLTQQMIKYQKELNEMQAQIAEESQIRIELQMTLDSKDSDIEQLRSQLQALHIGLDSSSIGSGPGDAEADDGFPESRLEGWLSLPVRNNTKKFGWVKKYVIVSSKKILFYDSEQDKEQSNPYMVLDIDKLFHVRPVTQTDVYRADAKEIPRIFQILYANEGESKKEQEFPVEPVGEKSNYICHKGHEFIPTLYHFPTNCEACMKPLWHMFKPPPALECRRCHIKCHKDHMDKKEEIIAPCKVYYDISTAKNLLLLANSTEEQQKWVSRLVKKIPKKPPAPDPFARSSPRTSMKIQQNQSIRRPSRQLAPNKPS

SMILES | Ki (Rho Kinase) | Ki (JAK2) | also measured
O=C(Nc1ccc2cnccc2c1)[C@@H]1C[C@H]1c1ccc(S(=O)(=O)Nc2ccccc2)cc1 (racemic) [(rel)-(1R,2R)-N-(isoquinolin-6-yl)-2-(4-(N-phenylsulfamoyl)phenyl)cyclopropane-1-carboxamide] | – | – | Ki (ROCK2; ROCK2, Table 17): 75 nM; Ki (ROCK1; ROCK1, Table 17): 154 nM
O=C(Nc1ccc2cnccc2c1)[C@@H]1C[C@H]1c1ccc(S(=O)(=O)NC[C@H]2CCCNC2)cc1 (relative stereo) [(rel)-(1R,2R)-N-(isoquinolin-6-yl)-2-(4-(N-(((S)-piperidin-3-yl)methyl)sulfamoyl)phenyl) cyclopropane-1-carboxamide dihydrochloride] | – | – | Ki (ROCK2; ROCK2, Table 17): 5 nM; Ki (ROCK1; ROCK1, Table 17): 5 nM
O=C(Nc1ccc2cnccc2c1)[C@@H]1C[C@H]1c1ccc(S(=O)(=O)NC2CCNCC2)cc1 (relative stereo) [(rel)-(1R,2R)-N-(isoquinolin-6-yl)-2-(4-(N-(piperidin-4-yl)sulfamoyl)phenyl) cyclopropane-1-carboxamide dihydrochloride] | – | – | Ki (ROCK2; ROCK2, Table 17): 7 nM; Ki (ROCK1; ROCK1, Table 17): 8.2 nM
O=C(Nc1ccc2cnccc2c1)[C@@H]1C[C@H]1c1ccc(S(=O)(=O)NCc2cccnc2)cc1 (relative stereo) [(rel)-(1R,2R)-N-(isoquinolin-6-yl)-2-(4-(N-(pyridin-3-ylmethyl)sulfamoyl)phenyl) cyclopropane-1-carboxamide] | – | – | Ki (ROCK2; ROCK2, Table 17): 9 nM; Ki (ROCK1; ROCK1, Table 17): 25 nM
O=C(Nc1ccc2cnccc2c1)[C@@H]1C[C@H]1c1ccc(S(=O)(=O)N2CCNCC2)cc1 (relative stereo) [(rel)-(1R,2R)-N-(isoquinolin-6-yl)-2-(4-(piperazin-1-ylsulfonyl)phenyl) cyclopropane-1-carboxamide dihydrochloride] | – | – | Ki (ROCK2; ROCK2, Table 17): 31 nM; Ki (ROCK1; ROCK1, Table 17): 48 nM
O=C(Nc1ccc2cnccc2c1)[C@@H]1C[C@H]1c1ccc(I)cc1 (relative stereo) [Example E251, rel-(1R,2R)-2-(4-iodophenyl)-N-(isoquinolin-6-yl)cyclopropane-1-carboxamide] | 150 to 400 nM | 500 to 800 nM | –
O=C(Nc1ccc2cnccc2c1)[C@@H]1C[C@H]1c1ccc(S(=O)(=O)NCC2CCNCC2)cc1 (relative stereo) [drawing 663, (rel)-(1R,2R)-N-(isoquinolin-6-yl)-2-(4-(N-(piperidin-4-ylmethyl)sulfamoyl)phenyl) cyclopropane-1-carboxamide dihydrochloride] | – | – | Ki (ROCK2; ROCK2, Table 17): 8 nM; Ki (ROCK1; ROCK1, Table 17): 9 nM
CC(C)(C)OC(=O)N1CCCC1CNC(=O)c1ccc(C2CC2C(=O)Nc2ccc3cnccc3c2)cc1 (stereo not drawn) [Example 19.1] | 30 to 60 nM | 1500 to 3500 nM | –
O=C(NCc1ccccn1)c1ccc(C2CC2C(=O)Nc2ccc3cnccc3c2)cc1 (stereo not drawn) [Example E9] | 3 to 5 nM | 65 to 100 nM | –
O=C(Nc1ccncc1)c1ccc(C2CC2C(=O)Nc2ccc3cnccc3c2)cc1 (stereo not drawn) [Example E12] | 1 to 4 nM | 400 nM | –
O=C(NCc1ccc(C(F)(F)F)cc1)c1ccc(C2CC2C(=O)Nc2ccc3cnccc3c2)cc1 (stereo not drawn) [Example E16] | 5 to 75 nM | 2500 to 9000 nM | –
O=C(Nc1ccc2cnccc2c1)c1ccc(C2CC2C(=O)Nc2ccc3cnccc3c2)cc1 (stereo not drawn) [Example E18] | 0.8 to 8 nM | 1000 to 1200 nM | –
O=C(NCC1CCCN1)c1ccc(C2CC2C(=O)Nc2ccc3cnccc3c2)cc1 (stereo not drawn) [Example E19.2] | 6 to 12 nM | 300 to 350 nM | –
CC(C)(C)OC(=O)N1CCC(CNC(=O)c2ccc(C3CC3C(=O)Nc3ccc4cnccc4c3)cc2)C1 (stereo not drawn) [Example E20.1] | 0.5 to 2 nM | 700 to 2000 nM | –
O=C(NCC1CCNC1)c1ccc(C2CC2C(=O)Nc2ccc3cnccc3c2)cc1 (stereo not drawn) [Example E20.2] | 4 to 6 nM | 27 to 150 nM | –
CC(C)(C)OC(=O)N1CCC(CNC(=O)c2ccc(C3CC3C(=O)Nc3ccc4cnccc4c3)cc2)CC1 (stereo not drawn) [Example E29.1] | 0.5 to 1 nM | 1000 to 6000 nM | –
O=C(NCc1ccccn1)c1ccc(C2CC2C(=O)Nc2ccc3c(O)nccc3c2)cc1 (stereo not drawn) [Example E31] | 5 to 7 nM | 375 to 570 nM | –
O=C(NCc1cccnc1)c1ccc(C2CC2C(=O)Nc2cc3ccncc3cc2Br)cc1 (stereo not drawn) [Example E32] | 2.5 to 4.5 nM | 400 to 1300 nM | –
O=C(NCc1cccnc1)c1ccc(C2CC2C(=O)Nc2ccc3cncc(F)c3c2)cc1 (stereo not drawn) [Example E33] | 5 to 8 nM | 75 to 110 nM | –
Cc1cncc2ccc(NC(=O)C3CC3c3ccc(C(=O)NCc4cccnc4)cc3)cc12 (stereo not drawn) [Example E34] | 7 to 14 nM | 30 to 45 nM | –
O=C(NCc1cccnc1)c1ccc(C2CC2C(=O)Nc2ccc3cnccc3c2F)cc1 (stereo not drawn) [Example E35] | 0.5 to 8 nM | 300 to 950 nM | –
CN(C)CCNC(=O)c1ccc(C2CC2C(=O)Nc2ccc3cnccc3c2)cc1 (stereo not drawn) [Example E37] | 4.3 to 9 nM | 800 nM | –

SMILES | Ki (Rho Kinase) | Ki (JAK2) | also measured
O=C(NCCO)c1ccc(C2CC2C(=O)Nc2ccc3cnccc3c2)cc1 (stereo not drawn) [Example E38] | 7 to 9.5 nM | 136 nM | –
O=C(NCCN1CCCCC1)c1ccc(C2CC2C(=O)Nc2ccc3cnccc3c2)cc1 (stereo not drawn) [Example E39] | 5 to 7 nM | 400 nM | –
O=C(NCc1ccccn1)c1ccc([C@@H]2C[C@H]2C(=O)Nc2ccc3cnccc3c2)cc1 [Example E54, 4-((1R,2R)-2-(isoquinolin-6-ylcarbamoyl)cyclopropyl)-N-(pyridin-2-ylmethyl)benzamide] | 1 to 2 nM | 15 to 90 nM | –
O=C(NCc1ccccn1)c1ccc([C@H]2C[C@@H]2C(=O)Nc2ccc3cnccc3c2)cc1 [Example E55] | 12000 to 52000 nM | – | JAK2 activity (JAK2): inactive
O=C(NCc1cccnc1)c1ccc([C@@H]2C[C@H]2C(=O)Nc2ccc3cnccc3c2F)cc1 [Example E56.1] | 0.1 to 0.5 nM | 40 to 75 nM | –
O=C(NCc1cccnc1)c1ccc([C@@H]2C[C@H]2C(=O)Nc2ccc3cnccc3c2)cc1 [Example E56] | 0.5 to 3 nM | 40 to 120 nM | –
CC(C)(C)OC(=O)N1CCC[C@@H](CNC(=O)c2ccc([C@@H]3C[C@H]3C(=O)Nc3ccc4cnccc4c3)cc2)C1 [Example E57.1] | 0.15 to 1 nM | 45 to 65 nM | –
O=C(NC[C@@H]1CCCNC1)c1ccc([C@@H]2C[C@H]2C(=O)Nc2ccc3cnccc3c2)cc1 [Example E57.2] | 0.1 to 1 nM | 7 nM | –
O=C(OCc1ccccc1)c1ccc(C2CC2C(=O)Nc2ccc3c(O)nccc3c2)cc1 (stereo not drawn) [Example E100.1] | 25 nM | – | JAK2 activity (JAK2): inactive
O=C(OCc1ccccc1)c1ccc(C2CC2C(=O)Nc2cc3ccncc3cc2Cl)cc1 (stereo not drawn) [Example E104.1] | 15 to 75 nM | – | JAK2 activity (JAK2): inactive
O=C(OCc1ccccc1)c1ccc([C@@H]2C[C@H]2C(=O)Nc2ccc3cnccc3c2)cc1 [Example E115, benzyl 4-((1R,2R)-2-(isoquinolin-6-ylcarbamoyl)cyclopropyl)benzoate] | 40 to 75 nM | 3000 to 5000 nM | –
O=C(O)c1ccc([C@@H]2C[C@H]2C(=O)Nc2ccc3cnccc3c2)cc1 [Example E116, 4-((1R,2R)-2-(isoquinolin-6-ylcarbamoyl)cyclopropyl)benzoic acid] | 100 to 400 nM | 400 to 700 nM | –
O=C(Nc1ccccc1Cl)OCc1ccc(C2CC2C(=O)Nc2ccc3cnccc3c2)cc1 (stereo not drawn) [Example E143] | 190 to 250 nM | 1300 to 2700 nM | –
C[C@@H]1OC(c2ccc(C3CC3C(=O)Nc3ccc4cnccc4c3)cc2)O[C@@H]1C (stereo partly drawn) [Example E158, trans-2-(4-((4S,5S)-4,5-dimethyl-1,3-dioxolan-2-yl)phenyl)-N-(isoquinolin-6-yl)cyclopropane-1-carboxamide] | 165 to 215 nM | 1000 nM | –
O=C(NCc1cccnc1)c1cccc(C2CC2C(=O)Nc2ccc3cnccc3c2)c1 (stereo not drawn) [Example E173] | 0.7 to 1 nM | 200 nM | –
CC(C)(C)OC(=O)c1ccc(C2CC2C(=O)Nc2ccc3cnccc3c2)cc1 (stereo not drawn) [Example E191.1] | 105 to 155 nM | 5200 nM | –
O=C(NCc1ccccn1)c1ccc(C2CC2C(=O)Nc2ccc3cnccc3c2)c(F)c1 (stereo not drawn) [Example E194] | 3.5 to 4 nM | 15 nM | –
O=C(Nc1ccc2cnccc2c1)[C@@H]1C[C@H]1c1ccc(S(=O)(=O)Nc2ccccc2)cc1 [Example E265] | – | – | Ki (ROCK2; ROCK2, Table 16): 75 nM; Ki (ROCK1; ROCK1, Table 16): 154 nM
O=C(Nc1ccc2cnccc2c1)[C@@H]1C[C@H]1c1ccc(S(=O)(=O)Nc2cccnc2)cc1 [Example E268] | – | – | Ki (ROCK2; ROCK2, Table 16): 24 nM; Ki (ROCK1; ROCK1, Table 16): 85 nM
O=C(Nc1ccc2cnccc2c1)[C@@H]1C[C@H]1c1ccc(S(=O)(=O)NCc2cccnc2)cc1 [Example E269] | – | – | Ki (ROCK2; ROCK2, Table 16): 9 nM; Ki (ROCK1; ROCK1, Table 16): 25 nM
O=C(Nc1ccc2cnccc2c1)[C@@H]1C[C@H]1c1ccc(S(=O)(=O)NCC2CCNCC2)cc1 [Example E271] | – | – | Ki (ROCK2; ROCK2, Table 16): 8 nM; Ki (ROCK1; ROCK1, Table 16): 9 nM
O=C(Nc1ccc2cnccc2c1)[C@@H]1C[C@H]1c1cccc(S(=O)(=O)Nc2ccccn2)c1 [Example E279] | – | – | Ki (ROCK1; ROCK1, Table 16): 11 nM
